Laboratory results: ChEMBL document CHEMBL1145598, “Discovery and preclinical studies of 5-isopropyl-6-(5-methyl-1,3,4-oxadiazol-2-yl)-N-(2-methyl-1H-pyrrolo[2,3-b]pyridin-5-yl)pyrrolo[2,1-f][1,2,4]triazin-4-amine (BMS-645737), an in vivo active potent VEGFR-2 inhibitor” (Bioorg Med Chem Lett, 2008)
Values after ≈ are worked out from the molar mass of the structure shown. One block for each molecule: values may come before it.

Assays:
[1] = Half life in BALB/c mouse at 5 mg/kg, iv; format: ADME, organism-based; set-up: dose 5 mg/kg, route intravenous; details: in vivo
[2] = target: Epidermal growth factor receptor (Homo sapiens, UniProt P00533); test: Inhibition of EGFR
[3] = target: Receptor tyrosine-protein kinase erbB-2 (Homo sapiens, UniProt P04626); test: Inhibition of HER2
[4] = target: Fibroblast growth factor receptor 1 (Homo sapiens, UniProt P11362); test: Inhibition of FGFR1
[5] = Half life in BALB/c mouse at 30 mg/kg, po; format: ADME, organism-based; set-up: dose 30 mg/kg, route oral; details: in vivo
[6] = target: Protein kinase C alpha type (Homo sapiens, UniProt P17252); test: Inhibition of PKCalpha
hERG (KCNH2) = hERG (KCNH2) (Homo sapiens, UniProt Q12809); test: Inhibition of human ERG at 10 uM by patch clamp method
[7] = target: T1, Tyrosine-protein kinase JAK3 (Homo sapiens, UniProt P52333); test: Inhibition of JAK3
T1 sequence (P52333 whole entry): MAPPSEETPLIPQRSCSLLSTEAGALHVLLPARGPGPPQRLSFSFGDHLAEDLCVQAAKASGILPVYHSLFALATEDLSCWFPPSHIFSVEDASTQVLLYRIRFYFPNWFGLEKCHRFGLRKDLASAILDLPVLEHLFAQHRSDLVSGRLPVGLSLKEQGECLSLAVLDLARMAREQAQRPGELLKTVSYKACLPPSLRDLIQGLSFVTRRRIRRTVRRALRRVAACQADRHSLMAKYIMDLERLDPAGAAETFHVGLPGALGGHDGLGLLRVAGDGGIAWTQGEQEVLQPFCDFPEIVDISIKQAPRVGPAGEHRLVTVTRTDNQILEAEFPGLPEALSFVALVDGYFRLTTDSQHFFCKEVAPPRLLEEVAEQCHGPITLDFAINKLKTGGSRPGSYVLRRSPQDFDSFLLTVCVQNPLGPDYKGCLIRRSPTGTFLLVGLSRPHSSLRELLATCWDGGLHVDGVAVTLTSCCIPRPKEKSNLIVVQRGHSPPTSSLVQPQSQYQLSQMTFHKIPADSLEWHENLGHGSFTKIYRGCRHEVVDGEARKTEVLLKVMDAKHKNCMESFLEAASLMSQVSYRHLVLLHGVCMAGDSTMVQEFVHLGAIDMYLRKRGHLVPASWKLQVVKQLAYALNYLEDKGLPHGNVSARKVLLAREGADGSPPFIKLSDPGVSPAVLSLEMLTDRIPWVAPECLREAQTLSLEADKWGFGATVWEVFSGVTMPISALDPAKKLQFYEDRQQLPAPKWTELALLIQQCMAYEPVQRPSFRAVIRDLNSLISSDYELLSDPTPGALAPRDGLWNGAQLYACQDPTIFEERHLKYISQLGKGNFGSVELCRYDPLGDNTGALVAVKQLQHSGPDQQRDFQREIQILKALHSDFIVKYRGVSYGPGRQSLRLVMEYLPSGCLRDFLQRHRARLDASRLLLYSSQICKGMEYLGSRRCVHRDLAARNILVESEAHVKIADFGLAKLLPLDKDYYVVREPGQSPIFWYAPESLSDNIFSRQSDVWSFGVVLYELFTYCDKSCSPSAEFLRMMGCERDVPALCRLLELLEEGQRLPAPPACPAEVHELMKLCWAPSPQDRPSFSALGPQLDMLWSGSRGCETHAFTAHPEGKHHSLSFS

[8] = Oral bioavailability in BALB/c mouse at 30 mg/kg; details: in vivo
[9] = Mean resident time in BALB/c mouse at 5 mg/kg, iv; format: ADME, organism-based; set-up: dose 5 mg/kg, route intravenous; details: in vivo
Cytochrome P450 3A4 = Cytochrome P450 3A4 (Homo sapiens, UniProt P08684); test: Inhibition of CYP3A4; format: ADME
[10] = target: Vascular endothelial growth factor receptor 2 (Homo sapiens, UniProt P35968)
Description: Inhibition of human VEGFR2

[11] = target: Tyrosine-protein kinase Lck (Homo sapiens, UniProt P06239); test: Inhibition of LCK
[12] = Volume of distribution at steady state in BALB/c mouse at 5 mg/kg, iv; format: ADME, organism-based; set-up: dose 5 mg/kg, route intravenous; details: in vivo, read-out: Vdss
[13] = Total AUC in BALB/c mouse at 5 mg/kg, iv; format: ADME, organism-based; set-up: time AUCmax, dose 5 mg/kg, route intravenous; details: in vivo
[14] = Total AUC in BALB/c mouse at 30 mg/kg, po; format: ADME, organism-based; set-up: time AUCmax, dose 30 mg/kg, route oral; details: in vivo
[15] = Clearance in BALB/c mouse at 5 mg/kg, iv; format: ADME, organism-based; set-up: dose 5 mg/kg, route intravenous; details: in vivo
[16] = target: Platelet-derived growth factor receptor beta (Homo sapiens, UniProt P09619); test: Inhibition of PDGFRbeta
[17] = AUC in mouse at 50 mg/kg, po after 4 hrs; format: ADME, organism-based; set-up: time < 4 hr, dose 50 mg/kg, route oral; details: plasma
Mus musculus [18] = test: Toxicity in human L2987 cells xenografted mouse assessed as weight loss at 7.5 mg/kg, po; format: organism-based; set-up: dose 7.5 mg/kg, route oral; details: in vivo
[19] = target: Voltage-gated inwardly rectifying potassium channel KCNH2 (Homo sapiens, UniProt Q12809); test: Inhibition of human ERG by patch clamp method
HUVEC [20] = test: Antiproliferative activity against VEGF-induced HUVEC; format: functional, cell-based; details: Homo sapiens
L2987 [21] = test: Antitumor activity against human L2987 cells xenografted mouse at 15 mg/kg, po after 4 days; format: functional
Rattus norvegicus = test: AUC in rat at 30 mg/kg; format: ADME, organism-based, Plasma; set-up: dose 30 mg/kg; details: in vivo
[22] = Antitumor activity against human H1993 cells; format: functional, cell-based; details: NCI-H1993
[23] = Oral bioavailability in rat at 30 mg/kg; format: ADME, organism-based; details: in vivo
NCI-N87 = test: Antitumor activity against human N87 cells; format: functional, cell-based
[24] = Antitumor activity against human GTL16 cells; format: functional, cell-based; details: GTL 16
[25] = AUC in human L2987 cells xenografted mouse at 7.5 mg/kg, po after 24 hrs; format: ADME, organism-based; set-up: time < 24 hr, dose 7.5 mg/kg, route oral; details: in vivo
[26] = Cmax in human L2987 cells xenografted mouse at 7.5 mg/kg, po after 24 hrs; format: ADME, organism-based; set-up: dose 7.5 mg/kg, route oral; details: in vivo
HUVEC [27] = test: Antiproliferative activity against bFGF-induced HUVEC; format: functional, cell-based; details: Homo sapiens
[28] = AUC in human L2987 cells xenografted mouse at 15 mg/kg, po after 24 hrs; format: ADME, organism-based; set-up: time < 24 hr, dose 15 mg/kg, route oral; details: in vivo
L2987 [29] = test: Antitumor activity against human L2987 cells xenografted in mouse; format: functional, cell-based
[30] = target: Vascular endothelial growth factor receptor 1 (Homo sapiens, UniProt P17948); test: Inhibition of VEGFR1
Mus musculus [31] = test: Toxicity in human L2987 cells xenografted mouse assessed as weight loss at 15 mg/kg, po; format: organism-based; set-up: dose 15 mg/kg, route oral; details: in vivo
[32] = Cmax in human L2987 cells xenografted mouse at 15 mg/kg, po after 24 hrs; format: ADME, organism-based; set-up: dose 15 mg/kg, route oral; details: in vivo
[33] = Tmax in BALB/c mouse at 30 mg/kg, po; details: in vivo
[34] = target: Vascular endothelial growth factor receptor 2 (Mus musculus, UniProt P35918); test: Inhibition of mouse Flk1
L2987 [35] = test: Antitumor activity against po dosed human L2987 cells xenografted mouse after 24 hrs; format: functional
Mus musculus [36] = test: Toxicity in human L2987 cells xenografted mouse assessed as morbidity at 15 mg/kg, po; format: organism-based; set-up: dose 15 mg/kg, route oral; details: in vivo
L2987 [37] = test: Antitumor activity against human L2987 cells xenografted mouse at 7.5 mg/kg, po after 4 days; format: functional
[38] = Aqueous solubility at pH 2; format: physicochemical; details: buffer
[39] = Aqueous solubility at pH 6.5; format: physicochemical; details: buffer
Mus musculus [40] = test: Toxicity in human L2987 cells xenografted mouse assessed as morbidity at 7.5 mg/kg, po; format: organism-based; set-up: dose 7.5 mg/kg, route oral; details: in vivo

Sequence of Cytochrome P450 3A4 (P08684 whole entry): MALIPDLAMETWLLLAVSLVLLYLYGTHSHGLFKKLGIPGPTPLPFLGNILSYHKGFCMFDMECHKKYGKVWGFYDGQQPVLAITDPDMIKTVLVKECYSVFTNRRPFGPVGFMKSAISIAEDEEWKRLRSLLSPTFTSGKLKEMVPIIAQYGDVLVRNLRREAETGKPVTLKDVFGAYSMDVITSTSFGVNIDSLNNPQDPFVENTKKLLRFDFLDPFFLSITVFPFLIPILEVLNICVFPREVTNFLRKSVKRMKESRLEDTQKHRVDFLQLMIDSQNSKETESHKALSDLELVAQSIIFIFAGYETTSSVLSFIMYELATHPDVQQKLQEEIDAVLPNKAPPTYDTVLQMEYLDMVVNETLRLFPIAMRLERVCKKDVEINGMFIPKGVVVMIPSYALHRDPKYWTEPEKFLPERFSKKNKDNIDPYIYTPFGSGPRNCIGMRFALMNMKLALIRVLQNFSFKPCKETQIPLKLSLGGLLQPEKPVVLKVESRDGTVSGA
Sequence of Platelet-derived growth factor receptor beta (P09619 whole entry): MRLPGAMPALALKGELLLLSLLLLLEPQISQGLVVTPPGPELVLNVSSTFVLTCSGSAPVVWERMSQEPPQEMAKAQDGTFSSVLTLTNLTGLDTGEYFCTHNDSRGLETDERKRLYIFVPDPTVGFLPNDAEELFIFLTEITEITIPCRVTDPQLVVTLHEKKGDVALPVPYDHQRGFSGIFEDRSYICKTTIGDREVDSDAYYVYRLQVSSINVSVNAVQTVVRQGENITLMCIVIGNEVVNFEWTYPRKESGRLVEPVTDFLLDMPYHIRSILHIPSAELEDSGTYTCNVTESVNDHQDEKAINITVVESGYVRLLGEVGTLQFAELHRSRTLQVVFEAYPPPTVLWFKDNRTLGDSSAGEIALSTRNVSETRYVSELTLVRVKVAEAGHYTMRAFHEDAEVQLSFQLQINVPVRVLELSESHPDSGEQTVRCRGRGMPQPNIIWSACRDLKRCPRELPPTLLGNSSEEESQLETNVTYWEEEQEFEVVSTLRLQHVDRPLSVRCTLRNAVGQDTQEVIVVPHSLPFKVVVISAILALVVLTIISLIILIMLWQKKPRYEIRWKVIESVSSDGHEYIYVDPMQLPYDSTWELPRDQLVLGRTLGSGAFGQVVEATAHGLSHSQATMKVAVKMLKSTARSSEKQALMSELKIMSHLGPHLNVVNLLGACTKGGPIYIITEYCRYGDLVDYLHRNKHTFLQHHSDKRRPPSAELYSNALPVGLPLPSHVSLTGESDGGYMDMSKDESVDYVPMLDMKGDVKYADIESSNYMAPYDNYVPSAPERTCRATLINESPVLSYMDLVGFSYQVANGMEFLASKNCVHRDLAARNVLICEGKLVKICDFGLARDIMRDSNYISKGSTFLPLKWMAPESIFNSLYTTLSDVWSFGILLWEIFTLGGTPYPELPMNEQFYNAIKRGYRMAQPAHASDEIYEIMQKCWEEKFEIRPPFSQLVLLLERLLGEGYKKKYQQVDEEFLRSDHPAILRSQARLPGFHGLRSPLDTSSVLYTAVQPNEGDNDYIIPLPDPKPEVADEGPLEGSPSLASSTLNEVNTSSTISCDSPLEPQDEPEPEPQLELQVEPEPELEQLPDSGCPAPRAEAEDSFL
Sequence of Tyrosine-protein kinase Lck (P06239 whole entry): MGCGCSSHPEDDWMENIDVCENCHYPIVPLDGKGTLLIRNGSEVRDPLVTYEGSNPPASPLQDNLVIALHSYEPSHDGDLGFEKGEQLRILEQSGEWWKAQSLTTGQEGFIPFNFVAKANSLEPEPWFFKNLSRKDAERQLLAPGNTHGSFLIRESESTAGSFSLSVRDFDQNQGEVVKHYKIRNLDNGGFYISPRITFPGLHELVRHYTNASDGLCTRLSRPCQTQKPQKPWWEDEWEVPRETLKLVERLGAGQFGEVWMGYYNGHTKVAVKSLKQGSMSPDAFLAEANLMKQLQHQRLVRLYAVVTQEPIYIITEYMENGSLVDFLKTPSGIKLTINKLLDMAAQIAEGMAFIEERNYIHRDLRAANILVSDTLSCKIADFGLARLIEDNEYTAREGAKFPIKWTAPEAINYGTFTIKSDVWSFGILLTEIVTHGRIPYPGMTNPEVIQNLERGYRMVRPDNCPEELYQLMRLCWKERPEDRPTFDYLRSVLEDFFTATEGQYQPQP
Sequence of Epidermal growth factor receptor (P00533 whole entry): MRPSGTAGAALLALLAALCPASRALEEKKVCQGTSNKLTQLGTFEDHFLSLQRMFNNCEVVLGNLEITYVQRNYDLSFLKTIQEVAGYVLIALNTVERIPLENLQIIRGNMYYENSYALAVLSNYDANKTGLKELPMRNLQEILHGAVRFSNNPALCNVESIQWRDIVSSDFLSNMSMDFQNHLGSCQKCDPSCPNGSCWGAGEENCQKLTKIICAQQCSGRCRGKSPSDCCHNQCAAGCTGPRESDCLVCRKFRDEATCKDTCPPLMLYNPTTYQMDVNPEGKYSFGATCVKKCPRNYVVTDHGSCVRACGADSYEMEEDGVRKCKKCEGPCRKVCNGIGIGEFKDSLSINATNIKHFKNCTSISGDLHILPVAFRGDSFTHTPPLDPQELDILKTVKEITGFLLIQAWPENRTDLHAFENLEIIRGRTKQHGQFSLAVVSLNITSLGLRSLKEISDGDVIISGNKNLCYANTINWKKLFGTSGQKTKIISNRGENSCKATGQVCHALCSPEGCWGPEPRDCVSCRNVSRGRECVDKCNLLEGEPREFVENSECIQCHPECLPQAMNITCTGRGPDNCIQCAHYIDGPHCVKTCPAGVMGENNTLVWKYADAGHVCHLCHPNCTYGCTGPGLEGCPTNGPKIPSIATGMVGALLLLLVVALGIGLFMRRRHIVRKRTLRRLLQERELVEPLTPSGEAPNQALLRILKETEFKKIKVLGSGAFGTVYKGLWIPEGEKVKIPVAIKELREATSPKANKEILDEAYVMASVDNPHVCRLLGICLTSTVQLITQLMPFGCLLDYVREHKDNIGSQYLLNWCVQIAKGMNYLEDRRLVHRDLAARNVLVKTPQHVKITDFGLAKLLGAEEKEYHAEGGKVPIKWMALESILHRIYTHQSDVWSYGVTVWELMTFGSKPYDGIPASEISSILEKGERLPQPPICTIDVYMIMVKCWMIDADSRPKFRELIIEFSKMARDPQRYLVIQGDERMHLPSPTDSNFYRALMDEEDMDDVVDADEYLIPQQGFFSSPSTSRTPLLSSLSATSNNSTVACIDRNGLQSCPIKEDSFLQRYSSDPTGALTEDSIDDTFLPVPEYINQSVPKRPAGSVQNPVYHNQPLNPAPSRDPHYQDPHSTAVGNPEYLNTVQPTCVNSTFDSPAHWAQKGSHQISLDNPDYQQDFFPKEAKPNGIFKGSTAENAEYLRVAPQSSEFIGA
Sequence of Fibroblast growth factor receptor 1 (P11362 whole entry): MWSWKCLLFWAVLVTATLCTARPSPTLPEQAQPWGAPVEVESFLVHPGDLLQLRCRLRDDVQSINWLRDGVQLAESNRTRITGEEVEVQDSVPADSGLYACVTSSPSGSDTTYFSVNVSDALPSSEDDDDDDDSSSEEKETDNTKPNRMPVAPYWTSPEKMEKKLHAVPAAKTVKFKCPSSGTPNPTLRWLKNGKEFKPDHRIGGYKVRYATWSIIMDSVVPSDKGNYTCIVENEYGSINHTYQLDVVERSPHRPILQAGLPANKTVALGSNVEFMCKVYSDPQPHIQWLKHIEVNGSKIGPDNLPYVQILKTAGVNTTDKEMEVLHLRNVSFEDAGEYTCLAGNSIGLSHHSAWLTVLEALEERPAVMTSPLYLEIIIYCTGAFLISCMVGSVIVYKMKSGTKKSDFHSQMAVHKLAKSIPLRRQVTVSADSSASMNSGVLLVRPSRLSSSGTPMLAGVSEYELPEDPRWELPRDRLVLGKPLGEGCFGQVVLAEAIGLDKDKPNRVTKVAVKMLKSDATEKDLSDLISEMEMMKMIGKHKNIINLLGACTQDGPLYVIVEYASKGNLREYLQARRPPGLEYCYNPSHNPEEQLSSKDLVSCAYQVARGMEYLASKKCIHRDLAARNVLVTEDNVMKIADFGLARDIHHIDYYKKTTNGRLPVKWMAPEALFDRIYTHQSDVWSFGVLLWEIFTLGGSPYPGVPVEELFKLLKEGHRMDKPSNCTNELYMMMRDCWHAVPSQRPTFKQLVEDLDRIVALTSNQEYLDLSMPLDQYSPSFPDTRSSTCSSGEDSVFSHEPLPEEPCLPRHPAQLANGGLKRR

Compound: Cc1nnc(-c2cn3ncnc(Nc4cnc5[nH]ccc5c4)c3c2C(C)C)o1
half-life [1]: 1.2 h
IC50 [2]: 0.15 µM
IC50 [3]: 0.5 µM
IC50 [4]: 0.061 µM
half-life [5]: 4.5 h
IC50 [6]: > 50 µM
inhibition at 10 µM (hERG (KCNH2)): 29%
IC50 [7]: > 50 µM
bioavailability [8]: 29%
MRT [9]: 1.7 h
IC50 (Cytochrome P450 3A4): > 40 µM
IC50 [10]: 0.031 µM
IC50 [11]: 0.185 µM
Vd [12]: 1.9 L/kg
AUC [13]: 12.4 µM·h
AUC [14]: 21.7 µM·h
clearance [15]: 18 mL/min/kg
IC50 [16]: 0.389 µM

AUC at 4 h [17]: 29.6 µM·h
Compound: Cc1cc2c(F)c(Oc3ncnn4cc(OC[C@@H](C)O)c(C)c34)cnc2[nH]1

AUC at 4 h [17]: 11.1 µM·h
Compound: Cc1c(OC[C@@H](C)O)cn2ncnc(Oc3cnc4[nH]ccc4c3F)c12

half-life [1]: 2.8 h
half-life [5]: 2.8 h
bioavailability [8]: 99%
MRT [9]: 4.3 h
IC50 (Cytochrome P450 3A4): 6.4 µM
Vd [12]: 1.2 L/kg
AUC [13]: 46 µM·h
AUC [14]: 272 µM·h
clearance [15]: 4.5 mL/min/kg
Compound: CNc1nnc(-c2cn3ncnc(Nc4cnc5[nH]c(C)cc5c4)c3c2C(C)C)o1

AUC at 4 h [17]: 136 µM·h
Compound: Cc1cc2c(F)c(Oc3ncnn4cc(OC[C@@H](C)O)c(C)c34)ccc2[nH]1 [BRIVANIB]

half-life [1]: 2.9 h
IC50 [2]: > 1 µM
IC50 [3]: > 5 µM
IC50 [4]: 0.078 µM
AUC (Rattus norvegicus): 287 µM·h
half-life [5]: 2.5 h
IC50 [6]: > 50 µM
IC50 [22]: > 10 µM
IC50 [7]: > 50 µM
bioavailability [23]: 68%
bioavailability [8]: > 100%
IC50 (NCI-N87): > 10 µM
IC50 [24]: > 10 µM
AUC at 24 h [25]: 11 µM·h
MRT [9]: 2.7 h
Cmax [26]: 1030 nM
IC50 (Cytochrome P450 3A4): 11.5 µM
IC50 [10]: 0.025 µM
IC50 [11]: > 2 µM
Vd [12]: 1.4 L/kg
AUC [13]: 25 µM·h
AUC at 24 h [28]: 30 µM·h
IC50 (L2987 [29]): > 2.5 µM
IC50 [30]: 0.268 µM
AUC [14]: 182 µM·h
Cmax [32]: 2640 nM
Tmax [33]: 0.5 h
IC50 [34]: 0.053 µM
clearance [15]: 8.5 mL/min/kg
solubility [38]: 400 µg/mL (≈ 1030 µM)
solubility [39]: 2.8 µg/mL (≈ 7.21 µM)
IC50 [16]: > 2 µM
Compound: Cc1cc2cc(Nc3ncnn4cc(-c5nnc(C)o5)c(C(C)C)c34)cnc2[nH]1
Activity (Mus musculus [18]): Non-toxic
IC50 [19]: 6.6 µM
IC50 (HUVEC [20]): 0.013 µM
Activity (L2987 [21]): >=50%
inhibition at 10 µM (hERG (KCNH2)): 64%
IC50 (HUVEC [27]): 0.138 µM
Activity (Mus musculus [31]): Non-toxic
Activity (L2987 [35]): Dose-dependent effect
minimal effective dose (L2987 [35]; read-out: MED): 7.5 mg/kg
Activity (Mus musculus [36]): Non-toxic
Activity (L2987 [37]): >=50%
Activity (Mus musculus [40]): Non-toxic
